Results reported in EP3301096A1, “BIS-INDOLE DERIVATIVES FOR USE IN THE TREATMENT OF BACTERIAL INFECTIONS” (Heinrich Heine Universität Düsseldorf, priority 2016, dated 2018).

Test system: M. tuberculosis H37Rv
Assay: MIC determination, resazurin microplate assay
Type: cell-based
Details: Mycobacterium tuberculosis, 120 h, five days, range 100-0.78 µM

SMILES	MIC
c1ccc2c(-c3csc(-c4c[nH]c5ccccc45)n3)c[nH]c2c1 [formula (18), 2,4-di(1H-indole-3-yl)thiazole]	100 µM
c1cnc2[nH]cc(-c3cnc(-c4c[nH]c5ncccc45)nc3)c2c1 [formula (13), 3,3'-(pyrimidine-2,5-diyl)bis(1H-pyrrolo[2,3-b]pyridine)]	> 100 µM
c1ccc2c(-c3cnc(-c4c[nH]c5ccccc45)nc3)c[nH]c2c1 [formula (12), 3,3'-(pyrimidine-2,5-diyl)bis(1H-indole)]	50 µM
COc1ccc2c(-c3cnc(-c4c[nH]c5cc(OC)ccc45)cn3)c[nH]c2c1 [formula (9), 2,5-bis(6-methoxy-1H-indole-3-yl)pyrazine]	> 100 µM

Test system: E. faecium ATCC 35667
Assay: MIC by broth microdilution method (CLSI)
Details: Enterococcus faecium, ATCC35667, 24 h
Experimental: (§2) The compounds were tested for their antibacterial activities against the pathogenic nosocomial strains of Staphylococcus aureus, Enterococcus faecalis Enterococcus faecium, Acinetobacter baumannii. The minimal inhibitory concentration (MIC) was determined by the broth microdilution method according to the recommendations of the Clinical and Laboratory Standards Institute (CLSI) (CLSI M7-A9, 2012). For preparation of the inoculum the growth method was used. Bacterial cells were grown aerobically in Muller Hinton (MH) medium at 37°C and 180 rpm. A preculture was grown until log phase (OD600 nm ∼ 0.5) and then seeded at 5 x 10^4 bacteria/well in a total volume of 100 µL in 96 well round bottom microtiter plates and incubated with serially diluted test substances at a concentration range of 100-0.78 µM. The compounds were screened in two-fold serial dilution. Microplates were incubated aerobically at 37°C for 24 h. MICs were determined by identifying the minimum concentration of the compounds that led to complete inhibition of visual growth of the bacteria.

SMILES	MIC
c1ccc2c(-c3csc(-c4c[nH]c5ccccc45)n3)c[nH]c2c1 [formula (18), 2,4-di(1H-indole-3-yl)thiazole]	6.25 µM
c1cnc2[nH]cc(-c3cnc(-c4c[nH]c5ncccc45)nc3)c2c1 [formula (13), 3,3'-(pyrimidine-2,5-diyl)bis(1H-pyrrolo[2,3-b]pyridine)]	> 100 µM
c1ccc2c(-c3cnc(-c4c[nH]c5ccccc45)nc3)c[nH]c2c1 [formula (12), 3,3'-(pyrimidine-2,5-diyl)bis(1H-indole)]	100 µM
COc1ccc2c(-c3cnc(-c4c[nH]c5cc(OC)ccc45)cn3)c[nH]c2c1 [formula (9), 2,5-bis(6-methoxy-1H-indole-3-yl)pyrazine]	> 100 µM

Test system: VR E. faecium ATCC 700221
Assay: MIC by broth microdilution method (CLSI)
Details: Enterococcus faecium, ATCC700221, 24 h

SMILES	MIC
c1ccc2c(-c3csc(-c4c[nH]c5ccccc45)n3)c[nH]c2c1 [formula (18), 2,4-di(1H-indole-3-yl)thiazole]	6.25 µM
c1cnc2[nH]cc(-c3cnc(-c4c[nH]c5ncccc45)nc3)c2c1 [formula (13), 3,3'-(pyrimidine-2,5-diyl)bis(1H-pyrrolo[2,3-b]pyridine)]	> 100 µM
c1ccc2c(-c3cnc(-c4c[nH]c5ccccc45)nc3)c[nH]c2c1 [formula (12), 3,3'-(pyrimidine-2,5-diyl)bis(1H-indole)]	100 µM
COc1ccc2c(-c3cnc(-c4c[nH]c5cc(OC)ccc45)cn3)c[nH]c2c1 [formula (9), 2,5-bis(6-methoxy-1H-indole-3-yl)pyrazine]	> 100 µM

Test system: E. faecalis ATCC 29212
Assay: MIC by broth microdilution method (CLSI)
Details: Enterococcus faecalis, ATCC29212, 24 h
Experimental: as §2

SMILES	MIC
c1ccc2c(-c3csc(-c4c[nH]c5ccccc45)n3)c[nH]c2c1 [formula (18), 2,4-di(1H-indole-3-yl)thiazole]	> 100 µM
c1cnc2[nH]cc(-c3cnc(-c4c[nH]c5ncccc45)nc3)c2c1 [formula (13), 3,3'-(pyrimidine-2,5-diyl)bis(1H-pyrrolo[2,3-b]pyridine)]	100 µM
c1ccc2c(-c3cnc(-c4c[nH]c5ccccc45)nc3)c[nH]c2c1 [formula (12), 3,3'-(pyrimidine-2,5-diyl)bis(1H-indole)]	50 µM
COc1ccc2c(-c3cnc(-c4c[nH]c5cc(OC)ccc45)cn3)c[nH]c2c1 [formula (9), 2,5-bis(6-methoxy-1H-indole-3-yl)pyrazine]	> 100 µM

Test system: methicillin-resistant Staphylococcus aureus
Assay: MIC quantified via the BacTiter-Glo assay
Type: cell-based
Details: methicillin-resistant strain; 24 h
Experimental: (§1) The MICs of compounds according to formulas (2), (3), (4), (7), (11), (12) and (18) were additionally quantified via the BacTiter-Glo™ assay (Promega, Madison, WI, USA). Briefly, after an incubation time of 24 h, each well was resuspended by pipetting, and 50 µL aliquots were transferred into an opaque-walled multiwell plate. Additionally, control wells containing medium without cells to determine background luminescence were prepared. 50 µL BacTiter-Glo™ reagent were added to each well. Contents were mixed and incubated for five minutes at room temperature. Luminescence was measured using a microplate reader. Growth was calculated relative to the background luminescence (0% growth) and a compound-free DMSO control (100% growth).

SMILES	inhibition of Staphylococcus aureus (BacTiter-Glo)
c1ccc2c(-c3csc(-c4c[nH]c5ccccc45)n3)c[nH]c2c1 [formula (18), 2,4-di(1H-indole-3-yl)thiazole]	effectively inhibited

Test system: methicillin-sensitive Staphylococcus aureus
Assay: MIC quantified via the BacTiter-Glo assay
Type: cell-based
Details: methicillin-sensitive strain; 24 h
Experimental: as §1

SMILES	inhibition of Staphylococcus aureus (BacTiter-Glo)
c1ccc2c(-c3csc(-c4c[nH]c5ccccc45)n3)c[nH]c2c1 [formula (18), 2,4-di(1H-indole-3-yl)thiazole]	effectively inhibited

Test system: nosocomial pathogens and Mycobacterium tuberculosis
Assay: MIC determination, statements across the tested strains
Type: cell-based
Details: not given

SMILES	effect against M. tuberculosis, S. aureus and E.faecium
COc1ccc2c(-c3cnc(-c4c[nH]c5cc(OC)ccc45)cn3)c[nH]c2c1 [formula (9), 2,5-bis(6-methoxy-1H-indole-3-yl)pyrazine]	did not show any effect

Test system: S. aureus ATCC 25923
Assay: MIC by broth microdilution method (CLSI)
Details: Staphylococcus aureus, ATCC25923, 24 h
Experimental: as §2

SMILES	MIC
c1ccc2c(-c3csc(-c4c[nH]c5ccccc45)n3)c[nH]c2c1 [formula (18), 2,4-di(1H-indole-3-yl)thiazole]	6.25 µM
c1cnc2[nH]cc(-c3cnc(-c4c[nH]c5ncccc45)nc3)c2c1 [formula (13), 3,3'-(pyrimidine-2,5-diyl)bis(1H-pyrrolo[2,3-b]pyridine)]	> 100 µM
c1ccc2c(-c3cnc(-c4c[nH]c5ccccc45)nc3)c[nH]c2c1 [formula (12), 3,3'-(pyrimidine-2,5-diyl)bis(1H-indole)]	100 µM
COc1ccc2c(-c3cnc(-c4c[nH]c5cc(OC)ccc45)cn3)c[nH]c2c1 [formula (9), 2,5-bis(6-methoxy-1H-indole-3-yl)pyrazine]	> 100 µM

Test system: E. faecalis ATCC 51299
Assay: MIC by broth microdilution method (CLSI)
Details: Enterococcus faecalis, ATCC51299, 24 h

SMILES	MIC
c1ccc2c(-c3csc(-c4c[nH]c5ccccc45)n3)c[nH]c2c1 [formula (18), 2,4-di(1H-indole-3-yl)thiazole]	> 100 µM
c1cnc2[nH]cc(-c3cnc(-c4c[nH]c5ncccc45)nc3)c2c1 [formula (13), 3,3'-(pyrimidine-2,5-diyl)bis(1H-pyrrolo[2,3-b]pyridine)]	> 100 µM
c1ccc2c(-c3cnc(-c4c[nH]c5ccccc45)nc3)c[nH]c2c1 [formula (12), 3,3'-(pyrimidine-2,5-diyl)bis(1H-indole)]	100 µM
COc1ccc2c(-c3cnc(-c4c[nH]c5cc(OC)ccc45)cn3)c[nH]c2c1 [formula (9), 2,5-bis(6-methoxy-1H-indole-3-yl)pyrazine]	> 100 µM

Test system: MRSA ATCC 700699
Assay: MIC by broth microdilution method (CLSI)
Details: Staphylococcus aureus, 24 h
Experimental: as §2

SMILES	MIC
c1ccc2c(-c3csc(-c4c[nH]c5ccccc45)n3)c[nH]c2c1 [formula (18), 2,4-di(1H-indole-3-yl)thiazole]	3.12 µM
c1cnc2[nH]cc(-c3cnc(-c4c[nH]c5ncccc45)nc3)c2c1 [formula (13), 3,3'-(pyrimidine-2,5-diyl)bis(1H-pyrrolo[2,3-b]pyridine)]	> 100 µM
c1ccc2c(-c3cnc(-c4c[nH]c5ccccc45)nc3)c[nH]c2c1 [formula (12), 3,3'-(pyrimidine-2,5-diyl)bis(1H-indole)]	12.5 µM
COc1ccc2c(-c3cnc(-c4c[nH]c5cc(OC)ccc45)cn3)c[nH]c2c1 [formula (9), 2,5-bis(6-methoxy-1H-indole-3-yl)pyrazine]	> 100 µM
